Consider 11 compounds from patent US5576303A, “Energy-supplementing saccharide source and its uses” (priority 1993, dated 1996).

Like-named read-outs stand apart in the source and are kept apart here. A value given as a limit tells only on which side of the number the result lay.

Data set [1] is described as follows: Digestion test in vitro (enzyme derived from rat small intestinal mucous membrane). The settings on record: small intestinal mucosa enzyme, Tables 4 and 5, rat small intestinal enzyme, read-out: Decomposition rate. It counts as in vitro ADME. As to the method: (§1) By using a trehalose solution of a high-purity hydrous crystalline trehalose prepared by the method in Experiment 1-2, a digestion test of trehalose was carried out in vitro in accordance with the method as reported by K. Okada et al. in JOURNAL OF JAPANESE SOCIETY OF NUTRITION AND FOOD SCIENCE, Vol.43, No.1, pp.23-29 (1990). The digestibility of trehalose was evaluated based on the decomposition rate (%) calculated by the following equation: [formula]
As evident from the results in Table 4, trehalose was not substantially hydrolyzed by the enzyme derived from rat small intestinal mucous membrane. By using the rat enzyme, disaccharides were tested for their digestibility similarly as above.

The conditions of data set [2]: cited from earlier work.
Data set [3] has as its system rabbits. Conditions: rabbit; for amount secreted in urine (in words): in vivo.
Data set [4] relates to rabbits. Conditions: rabbit. As to the method: (§2) A hydrous crystalline trehalose prepared by the method in Experiment 1-2 was dissolved in a refined water, and the resultant solution was membrane filtered, concentrated and recrystallized to obtain a pyrogen-free hydrous crystalline trehalose. The crystal thus obtained was dissolved in injectable distilled water into a 10 w/v % solution isotonic to rabbit blood as trehalose infusion. By using 6 rabbits, about 2-3 kg weight, the infusion was rapidly administered to their ear veins at a dose of one g/kg body weight within 1.5 min, followed by collecting their blood at a prescribed time interval, and subjecting the collected blood samples to the measurements of their sugar levels (glucose concentration (mg/dl)) and insulin levels (μU/ml). As a control, 5 w/v % glucose solution isotonic to rabbit blood was similarly administered to rabbit veins at a dose of 0.5 g/kg body weight. Each result was expressed by the mean value of the 6 rabbits, and the time courses of the blood sugar- and insulin-levels of the rabbits were respectively shown in FIGS. 3 and 4. In the figures, the solid- and dashed-lines mean the time courses of trehalose and insulin in rabbit blood, respectively.

Data set [5] is described as follows: Isotonicity to rabbit blood. Format: physicochemical. As to the method:
as §2

For data set [6], the system named is living bodies. The settings on record: prior art; cited from earlier work.
The conditions of data set [7]: improper dose or route of administration; cited from earlier work.
Data set [8] can be described thus: Digestion test in vitro (salivary amylase). It counts as in vitro ADME. Conditions: Table 4, salivary amylase, read-out: Decomposition rate. As to the method: as §1
Data set [9] has as its system amylases. The settings on record: Japanese Patent Laid-Open No. 240,758/88; cited from earlier work.
Data set [10] relates to human volunteers. As to the kind of experiment: Utilization test in vivo by oral administration (blood sugar and insulin levels). As to the method:
In accordance with the method reported by H. Atsuji et al. in Journal of Clinical Nutrition, Vol.41, No.2, pp.200-208 (1972), 30 g of a hydrous crystalline trehalose prepared by the method in Experiment 1-2 was dissolved in water into a 20 w/v % aqueous trehalose solution, and prescribed amounts of which were orally administered to 6 male volunteers, 26-31-year-old. The volunteers were let blood at a prescribed time interval, and each blood sample was measured its blood sugar level, i.e. glucose concentration (mg/dl) and insulin level (μU/ml). As a control, glucose was used. The results of both levels were the mean values of 6 volunteers. FIGS. 1 and 2 show the time courses of blood sugar- and insulin-levels, respectively. In the figures, the solid- and dashed-lines mean the time courses of trehalose and insulin, respectively.

Data set [11] in a line: Acute toxicity test. It counts as in vivo. Conditions: mouse, in vivo; oral, mice; "the value was not so accurate". As to the method:
(§3) By using mice, trehalose was tested for its acute toxicity by orally administering it to the mice a hydrous crystalline trehalose prepared by the method in Experiment 1-2. […] Based on the result, the LD50 was 50 g/kg or higher, though the value was not so accurate.

In data set [12] the test system is mice. As to the kind of experiment: Acute toxicity test. Format: in vivo. Conditions: oral. As to the method: as §3
Data set [13] is described as follows: Digestion test in vitro (gastric acid). It counts as in vitro ADME. Conditions: Table 4, gastric acid, read-out: Decomposition rate. As to the method: as §1
A short description of data set [14]: Digestion test in vitro (pancreatic amylase). Format: in vitro ADME. The settings on record: Table 4, pancreatic amylase, read-out: Decomposition rate. As to the method:
as §1

The mark [15] stands for this setting: 20 w/v % aqueous solution, 6 male volunteers, mean.

As to `OC[C@H]1O[C@H](O[C@H]2[C@H](O)[C@@H](O)[C@H](O)O[C@@H]2CO)[C@H](O)[C@@H](O)[C@@H]1O` (mixture of isomers) [Maltose], the metabolised in data set [1] is 80.1%.

For `OC[C@H]1O[C@@H](O[C@H]2[C@H](O)[C@@H](O)C(O)O[C@@H]2CO)[C@H](O)[C@@H](O)[C@@H]1O` (some centres unmarked) [Cellobiose], the metabolised in data set [1] came to 1.2%.

On to `OC[C@H]1O[C@H](OC[C@H]2OC(O)[C@H](O)[C@@H](O)[C@@H]2O)[C@H](O)[C@@H](O)[C@@H]1O` (some centres unmarked) [Isomaltose], for which the metabolised in data set [1] came out at 13.2%.

On to `OC[C@H]1O[C@@H](O[C@H]2[C@H](O)[C@@H](O)C(O)O[C@@H]2CO)[C@H](O)[C@@H](O)[C@H]1O` (some centres unmarked) [Lactose], for which the metabolised in data set [1] amounted to 9.7%.

Regarding `OC[C@H]1O[C@@](CO)(O[C@H]2O[C@H](CO)[C@@H](O)[C@H](O)[C@H]2O)[C@@H](O)[C@@H]1O` [Sucrose], the “hydrolysis under acidic conditions” value in [2] was “readily hydrolyzed”. Further, the metabolised in [1] amounted to 25.1%.

In the case of `O=C[C@H](O)[C@@H](O)[C@H](O)[C@H](O)CO` [glucose, reference compound], the “amount secreted in urine (in words)” value in data set [3] and in [4] (in vivo) was “absolutely low” throughout. Further, the “concentration isotonic to rabbit blood” value in data set [5] is reported as 5 w/v %.

For `OC[C@@H](O)[C@@H](O[C@@H]1O[C@H](CO)[C@H](O)[C@H](O)[C@H]1O)[C@H](O)[C@@H](O)CO` [lactitol], in [6], the “metabolism and utilization by living bodies” value was “not readily metabolized and utilized by living bodies”.

For the compound `OC[C@@H](O)[C@@H](O[C@H]1O[C@H](CO)[C@@H](O)[C@H](O)[C@H]1O)[C@H](O)[C@@H](O)CO` [maltitol], the “metabolism and utilization by living bodies” value in [6] was “not readily metabolized and utilized by living bodies”.

Take `OC[C@@H](O)[C@@H](O)[C@H](O)[C@@H](O)CO` [sorbitol]: the diarrhea entry in [7] is “may cause serious diarrhea”.

For `OC[C@H]1O[C@H](O[C@H]2O[C@H](CO)[C@@H](O)[C@H](O)[C@H]2O)[C@H](O)[C@@H](O)[C@@H]1O` [trehalose, O-α-D-glucopyranosyl α-D-glucopyranoside], the “hydrolysis, metabolism and utilization in vivo” value is “readily hydrolyzed into glucose in vivo, metabolized and utilized by the living bodies as energy source” in data set [3]; “readily hydrolyzed into glucose in vivo, metabolized and utilized by living bodies as energy source” in [4]. Further, the “amount secreted in urine (in words)” value in data set [3] and in data set [4] (in vivo) was “absolutely low” in each case. Also, the “dynamics of blood sugar- and insulin-levels against glucose” value in data set [4] (in vivo) was “tended to show a time lag”; in data set [10] (FIGS. 1 and 2), “tended to show a time lag”. Further, the “metabolism and utilization by living bodies” value in data set [6] was “not substantially assimilated and utilized by the body”. Further, the metabolised worked out at 0% in data set [8], 1.3% in [1] and 0% in [14]. In addition, the hydrolysis by amylases result in data set [9] is “not substantially hydrolyzed by amylases”. The “assimilation, metabolism and utilization” value in data set [10] was “readily assimilated, metabolized and utilized by living bodies as energy source”. Further, the “time of maximum of blood sugar level after administration” value in data set [10] (setting [15]) is 30 to 45 min. Further, the “time of maximum of insulin level after administration” value in [10] (setting [15]) lay within 30 to 45 min. Moreover, the “concentration isotonic to rabbit blood” value in data set [5] was found to be 10 w/v %. The same compound returned an LD50 in [11] of at least 50000 mg/kg. For the same compound, the “toxicity (in words)” value in data set [12] was “relatively-low toxicity”. Besides, the mortality result in data set [12] (highest possible dose) is “no mouse died”. Moreover, the degraded in [13] was 0%.

Take `OC[C@@H](O)[C@H](O)[C@@H](O)CO` [xylitol]: in data set [7], the diarrhea entry was “may cause serious diarrhea”.
